Patent US12435112B2, “Adenovirus comprising a modified adenovirus hexon protein” (UNIVERSITÄT ULM, priority 2019, dated 2025)

Test system: MSCs
Test: Transduction of MSCs with or without enhancing molecules
Format: cell-based, human
Settings: enhancer pre-incubated with adenovirus
Experimental: Transduction of MSCs by HAdV5 or HAdV5-Mut3, with or without Enhancing Molecules
MSCs were seeded in 1 mL PL-containing BioWhittaker® Alpha minimum essential medium (Lonza) in 24-well plates. The next day, the indicated viral vector particles were pre-incubated with or without enhancing molecules for 30 minutes at 37° C. in a total volume of 300 μL in PL-free medium. As enhancing molecules, Factor X (250-2000 ng/mL), Spermidine (1-625 ng/μL), Spermine (1-1000 ng/μL), Polybrene (0.08-81 μg/μL), Poly-L-Lysine (1-25% v/v) and Lactoferrin (1-1000 μg/mL) were used. Subsequently, MSCs were washed and 500 μL PL-free medium was provided. Cells were transduced by adding 300 μL of the pre-incubated viral particles (resulting in the indicated pMOI) and incubated for 2 hours at 37° C. Afterwards, cells were washed, and 1 mL of PL-containing medium was added. 72 hours after transduction, MSCs were detached and eGFP expression was analyzed by flow cytometry.
Amount of Enhancers Used for Pre-Incubation of HAdV5:
Transduction of MSCs by HAdV5, HAdV5-Mut3, HAdV5-ΔCAR-Mut3, HAdV5-ΔHVR1 or HAdV5-Mut2
Transduction of MSCs with a pMOI of 1000 was performed as described in section “Transduction of MSCs by HAdV5 or HAdV5-Mut3, with or without enhancing molecules”, except that MSCs were detached and eGFP expression was analyzed by flow cytometry 24 hours after transduction. No enhancing molecules were used.

Row | Structure (SMILES) | enhanced transduction of MSCs with adenoviruses by transduction enhancer
1 | NCCCNCCCCNCCCN [Spermine] | most pronounced
2 | NCCCCNCCCN [Spermidine] | most pronounced
